From patent publication US8877745B2, “CCR2 receptor antagonists, method for producing the same, and use thereof as medicaments” (Boehringer Ingelheim International GmbH, priority 2010, dated 2014)

Molecular target: T1, CCR2 (Homo sapiens, UniProt P41597)
T1 construct: Membranes were prepared from THP-1 cells; endogenous in cells; host or cells: THP-1 (human acute monocytic leukaemia cells), membrane preparation
Test: CCR2 receptor membrane binding assay ([125I]MCP-1, THP-1 cell membranes, SPA beads)
Conditions: THP-1 membranes, [125I]MCP-1, bound radioactivity determined after 8 h; read-out: hKi
Method: The above exemplary substances have been tested for binding to CCR2 using a binding assay as outlined herein below:
THP-1 cells (human acute monocytic leukaemia cells) were cultured under standardized conditions at 37° C. and 5% CO2 in a humidified incubator. THP-1 cells were cultivated in RPMI 1640 medium (Gibco 21875) containing 1% MEM-NEAA (Gibso 11140) 2 mM L-glutamine, 1.5 g/L sodium bicarbonate, 4.5 g/L glucose, 10 mM HEPES and 1.0 mM sodium pyruvate, 90%; 10% fetal calf serum (FCS Gibco 10500-064).
Membranes were prepared from THP-1 cells. THP-1 cells were centrifuged at 300×g at 4° C. for 10 min. The cell pellet was resuspended in Phosphate Buffer Saline (PBS, including 10 μM Pefabloc and a protease inhibitor mix ‘complete’, Boehringer Mannheim (1 tablet/50 ml)), to a concentration of […]. The membrane preparation was performed by disrupting the cells by nitrogen […] (at 50 bar, for 1 h) in a “Nitrogen Bombe” (Parr Instrument). Cell debris was removed by centrifugation (800×g at 4° C., 1 min). The supernatant was centrifuged at 80000×g, 4° C. for 30 min to sediment the cell membranes. Usually 50 mg of protein (Bradford assay) were yielded from 1×10E9 cells. The membranes were resuspended in 25 mM HEPES, 25 mM MgCl2, 1 mM CaCl2, 10% Glycerine for storage in aliquots at −80° C. in 25 mM HEPES, 25 mM MgCl2, 1 mM CaCl2, 10% Glycerine and stored at −80° C.
Receptor Membrane Binding Assay:
Perkin Elmer NEX 332 Jod 125 MCP-1, Stock: 2200 Ci/mmol solved in […] assay buffer, stored at −20° C. THP-1 membrane were adjusted with 25 mM HEPES, pH 7.2; 5 mM MgCl2; 0.5 mM CaCl2; 0.2% BSA assay buffer to a concentration of 2.5 μg/15 μl. Amersham Biosciences PVT-WGA Beads (RPNQ0001) were adjusted with assay buffer to a concentration of 0.24 mg/30 μl. For preparation of the membrane-bead-suspension membranes and beads were incubated for 30 min at RT under rotation (60 rpm) with a ratio of 1:2. Test compounds dissolved in 100% DMSO to a concentration of 10 mM and are further diluted with 100% DMSO to 1 mM. All additional compound dilutions were obtained with assay buffer, final 1% DMSO. Compounds, membrane-bead-suspension and [^125I]MCP-1 (ca. 25000 cpm/10 μl) were incubated. Bound radioactivity was determined by scintillation counter after 8 h. Determination of affinity of test compounds (dissociation constant hKi) is calculated by iterative fitting of experimental data using the “easy sys” program, which is based on law of mass action (Schittkowski K. (1994), Numerische Mathematik, Vol. 68, 129-142).

T1 sequence (P41597 whole entry): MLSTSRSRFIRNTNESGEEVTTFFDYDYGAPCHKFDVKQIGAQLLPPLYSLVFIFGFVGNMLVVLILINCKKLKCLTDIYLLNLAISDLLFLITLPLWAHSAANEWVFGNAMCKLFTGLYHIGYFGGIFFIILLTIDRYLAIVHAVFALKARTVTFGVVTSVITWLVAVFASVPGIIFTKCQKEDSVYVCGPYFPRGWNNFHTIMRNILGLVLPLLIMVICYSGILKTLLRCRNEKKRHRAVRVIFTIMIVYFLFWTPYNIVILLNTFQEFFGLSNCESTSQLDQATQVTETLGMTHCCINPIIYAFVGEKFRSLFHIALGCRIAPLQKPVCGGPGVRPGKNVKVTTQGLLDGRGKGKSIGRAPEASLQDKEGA

Ki | SMILES
1380 nM | COC1COCCC1NC1CCN(C(=O)c2ncnc(N3Cc4ccccc4C4(CC4)C3)c2C)CC1 (centres unmarked) [Example 62l]
12 nM | COC1COCCC1NC1CCN(C(=O)c2ncnc(N3CCN(c4ccc(Cl)cc4C)CC3)c2C)CC1 (centres unmarked) [Example 62y]
1100 nM | COC1COCCC1NC1CCN(C(=O)c2ncnc(N3CCCC(c4cccc(F)c4)C3)c2C)CC1 (centres unmarked) [Example 12]
28 nM | COc1c(C(=O)N2CCC(N[C@@H]3CCOC[C@@H]3OC)CC2)ncnc1N1CCc2ccc(OC(F)(F)F)cc2C1 [Example 69c]
732 nM | COC1COCCC1NC1CCN(C(=O)c2ncnc(N3CCC(c4cccc(C)c4)CC3)c2C)CC1 (centres unmarked) [Example 15]
1170 nM | Cc1c(C(=O)N2CCC(N3CCC(N(C)S(C)(=O)=O)CC3)CC2)ncnc1N1CCC(c2cccc(C(F)(F)F)c2)C1 (centres unmarked) [Example 46]
480 nM | Cc1c(C(=O)N2CCC(N3CCC(N(C)S(C)(=O)=O)CC3)CC2)ncnc1N1CCC(c2cccc(C(F)(F)F)c2)CC1 [Example 20]
172 nM | COC1COCCC1NC1CCN(C(=O)c2ncnc(N3CCC(c4ccc(Cl)cc4)C3)c2C)CC1 (centres unmarked) [Example 53]
114 nM | COC1COCCC1NC1CCN(C(=O)c2ncnc(N3CCN(c4ccc(F)c(Cl)c4)CC3)c2C)CC1 (centres unmarked) [Example 62u]
37 nM | Cc1c(C(=O)N2CCC(N[C@@H]3CCOC[C@@H]3F)CC2)ncnc1N1CCc2ccc(Br)cc2C1 [Example 69ab]
331 nM | COC1COCCC1NC1CCN(C(=O)c2ncnc(N3CCC(c4ccc(Cl)cc4)CC3)c2C)CC1 (centres unmarked) [Example 18]
3620 nM | COC1COCCC1NC1CCN(C(=O)c2ncnc(N3CCC4(CC3)OCc3ccccc34)c2C)CC1 (centres unmarked) [Example 19]
3560 nM | Cc1c(C(=O)N2CCN(C)CC2)ncnc1N1CCc2ccc(C(F)(F)F)cc2C1 [Example 70]
3680 nM | Cc1c(C(=O)N2CCC(N3CCC(N(C)S(C)(=O)=O)CC3)CC2)ncnc1N1CCC(c2ccccc2)CC1 [Example 28]
2110 nM | COC1COCCC1NC1CCN(C(=O)c2ncnc(N3CCCC(c4ccc(C)cc4)C3)c2C)CC1 (centres unmarked) [Example 33]
13 nM | CO[C@H]1COCC[C@H]1NC1CCN(C(=O)c2ncnc(N3CCc4ccc(Br)cc4C3)c2C)CC1 [Example 69z]
30 nM | COC1COCCC1NC1CCN(C(=O)c2ncnc(N3CCN(c4ccccc4C(F)(F)F)CC3)c2C)CC1 (centres unmarked) [Example 62z]
12 nM | COC1COCCC1NC1CCN(C(=O)c2ncnc(N3CCc4ccc(C(C)C)cc4C3)c2C)CC1 (centres unmarked) [Example 62k]
1090 nM | COC1COCCC1NC1CCN(C(=O)c2ncnc(N3CCOC(c4ccc(Cl)cc4)C3)c2C)CC1 (centres unmarked) [Example 4]
925 nM | Cc1c(C(=O)N2CCC(N(C)C)CC2)ncnc1N1CCc2ccc(C(F)(F)F)cc2C1 [Example 79]
538 nM | COC1COCCC1NC1CCN(C(=O)c2ncnc(N3CCC4(CC3)CC(=O)c3cc(F)ccc3O4)c2C)CC1 (centres unmarked) [Example 62g]
16 nM | COC1COCCC1NC1CCN(C(=O)c2ncnc(N3CCC4(CCc5cc(Br)ccc5O4)CC3)c2C)CC1 (centres unmarked) [Example 62ab]
14 nM | Cc1c(C(=O)N2CCC(N[C@@H]3CCOC[C@@H]3F)CC2)ncnc1N1COc2ccc(C(F)(F)F)cc2C1 [Example 69l]
739 nM | COC1COCCC1NC1CCN(C(=O)c2ncnc(N3CCC(c4ccc(C)cc4)CC3)c2C)CC1 (centres unmarked) [Example 13]
2320 nM | Cc1c(C(=O)N2CCCN(C)CC2)ncnc1N1CCc2ccc(C(F)(F)F)cc2C1 [Example 81]
2150 nM | COC1COCCC1NC1CCN(C(=O)c2ncnc(N3CCCC(c4cccc(C(F)(F)F)c4)C3)c2C)CC1 (centres unmarked) [Example 9]
5 nM | COc1nc(C(=O)N2CCC(NC3CCOCC3)CC2)c(C)c(N2CCc3ccc(C(F)(F)F)cc3C2)n1 [Example 69w]
41 nM | CO[C@H]1COCC[C@H]1N(C)C1CCN(C(=O)c2ncnc(N3CCc4ccc(C(F)(F)F)cc4C3)c2C)CC1 [Example 84]
104 nM | Cc1c(C(=O)N2CCC(N3CCC(O)CC3)CC2)ncnc1N1CCc2ccc(C(F)(F)F)cc2C1 [Example 72]
